Data reported in patent US9545393B2, “Methods and compositions for treating pain” (The Board of Trustees of the Leland Stanford Junior …, priority 2012, dated 2017).
“Also recorded” adds a separate entry of the source.

What was measured:
[1] = tested on: ALDH2 *1/*2 mice; experiment: Acetaldehyde vapor experiments with sub-threshold carrageenan, von Frey nociception; type: in vivo, mouse; conditions: ALDH2 *1/*2 mice exposed to acetaldehyde vapor, with Alda-1
Description: von Frey hair testing method: Hind paw nociception was assessed with six different von Frey hairs (0.03, 0.17, 0.41, 0.69, 1.20 and 1.48 g). Mice were placed individually in a plastic cage with a wire mesh bottom. After acclimation for at least 15 min, a von Frey hair was pressed perpendicularly against the plantar skin surface and held for approximately 5 seconds until hair slightly buckled. Using the same stimulation intensity […], each individual hair was applied six times to each hind paw at intervals of several seconds.
Since the response to each von Frey stimulus is fairly subjective, we used a method of objectifying these nociceptive responses by assigning a specific number to the response. Our scoring system consisted of: […], 1=withdraws paw from hair and 0=immediate flinching or hind paw licking. This method was previously shown by others to provide a reliable, objective assessment of pain response using von Frey hairs (Dale C S, et al., (2009) Analgesic properties of S100A9 C-terminal domain: a mechanism dependent on calcium channel inhibition. Fundamental & clinical pharmacology 23: 427-438; Takasaki I, et al., (2000) Allodynia and hyperalgesia induced by herpes simplex virus type-1 infection in mice. Pain 86: 95-101).
Acetaldehyde Experiments. […] A subset of these mice was exposed to acetaldehyde vapor with or without Alda-1. […]

[2] = tested on: acetaldehyde; experiment: Tissue acetaldehyde measurement in paw by LC-MS/MS; type: in vivo, rat; conditions: rats, Alda-1 versus carrageenan alone
Description: Tissue Acetaldehyde Measurements. Paw samples were quickly sealed in microcentrifuge tubes, weighed and 3 volumes (v/w) of 0.75 mg/mL Liberase T L (Roche, Indianapolis, Ind.) was added for overnight digestion at 37° C. Acetaldehyde standard solutions (100-5000 ng/mL) and the tissue samples were reacted with saturated 2,4 dinitrophenylhydrazine solution.
To establish LC-MS/MS conditions, the standard of acetaldehyde 2,4-dinitrophenyl-hydrazine (DNPH) was used. Chromatograms of standards were used to establish characteristic retention times of acetaldehyde, and verified the MS signal was linear over the range of 0.1-5 μg/mL. The acetaldehyde peak area derivatives were calculated and plotted against the concentration of the calibration standards using Analyst®1.5.1 software.
Aliquots (30 μL) were taken from each paw homogenate sample. Acetaldehyde in samples of paw homogenate was extracted by adding methanol containing 40 μg/mL DNPH (150 μL). Both unknown samples and standards were vortexed and centrifuged to separate the precipitate. Ten microliters of sample extracts were injected into LC MS/MS for analysis. Automatic peak detection, integration and data processing were performed by the AB SCIEX Analyst 1.5.1 software package. Concentrations of acetaldehyde were calculated by plotting peak area of unknown samples against a standard curve. […]

**Q.** For `O=C(NCc1ccc2c(c1)OCO2)c1c(Cl)cccc1Cl` [Alda-1, N-(1,3-benzodioxol-5-ylmethyl)-2,6-dichlorobenzamide], which “Acetaldehyde-exacerbated hyperalgesia after carrageenan (50 μg)” value [1] is on record?
**A.** The value was “rescued; also recorded: reversed”.

**Q.** What about the “Decrease of the level of acetaldehyde in paw” value ([2]; carrageenan-induced hyperalgesia) of the same molecule?
**A.** The value was about 50%.

**Q.** What about the “Carrageenan-induced acetaldehyde levels in inflamed paw (FIG. 2F)” value ([2]; P<0.05) of the same molecule?
**A.** The value was “significantly reduced”.
